Source: ChEMBL document CHEMBL4118282 (Bioorg Med Chem Lett, 2018)

What was measured:
[1] = Cytotoxicity against human MT4 cells assessed as reduction in cell viability after 5 days by MTT assay; assay type: cell-based
[2] = Therapeutic index, ratio of CC50 for human MT4 cells to EC50 for HIV1 3B […] infected in human MT4 cells; assay type: toxicity, cell-based; conditions: read-out: Ratio CC50/EC50

CC(C)[C@H](NC(=O)N(C)Cc1c[se]c(-c2ccccc2)n1)C(=O)N[C@@H](Cc1ccccc1)C[C@H](O)[C@H](Cc1ccccc1)NC(=O)OCc1cncs1
CC50 at 120 h [1]: 21 µM | selectivity ratio [2]: 124

CC(C)c1nc(CN(C)C(=O)N[C@H](C(=O)N[C@@H](Cc2ccccc2)C[C@H](O)[C@H](Cc2ccccc2)NC(=O)OCc2cncs2)C(C)C)c[se]1
CC50 at 120 h [1]: 42 µM | selectivity ratio [2]: 76
